The term melting point denotes the temperature of the solid-liquid transition.

Residues, ends and D or L forms follow the SMILES beside them. *: point of attachment. Boc = CC(C)(C)OC(=O)*; OBn = c1ccc(CO*)cc1; βAla = NCCC(=O)O

For `COc1cc(-c2ccc(O)c(C3(C)CCCCC3)c2)cc(CC2SC(N(C)C)=NC2=O)c1OC` (stereo not given), the melting point was 187 to 188 °C.

Regarding `OCCCOc1ccc(-n2ccnc2)cc1`, the melting point fell in the range of 76 to 78 °C.

Regarding `Fc1ccc2nc(Cl)c(Cl)nc2c1`, the melting point was 148 to 152 °C.

Compound `CC(C)Oc1ccc(CCCOc2cc(CCC(=O)O)n(Cc3ccccc3)n2)c(Oc2ncc(C(F)(F)F)cc2Cl)c1` returned a melting point of 99 to 100 °C.

`CCNC(=O)c1cccc(-c2cccc3cc(Cc4cccc(C(F)(F)F)c4)sc23)c1` came in with a melting point of 122 to 123 °C.

For `Cc1ccc2nc(NC3=NCCN3)[nH]c2c1`, the melting point was 264 to 266 °C.

The compound `COC(=O)c1oc2cc(S)ccc2c1C` displayed a melting point of 118 to 120 °C.

`CCCCN(CCCC(=O)O)C(=O)c1ccccc1` returned a melting point of 62 to 64 °C.

`CCc1nc2c(cnn2CC)c(NC2CCOCC2)c1CNC(=O)c1cccc(C(=O)NCc2ccc(C)c(-c3cccc(CN4CC5CC4CN5)c3)c2)c1` (stereo not given) had a melting point of 138 to 140 °C.

In turn, `COc1cccc(Oc2ccccc2C(=O)O)c1` displayed a melting point of 129 to 131 °C.

Compound `O=C(Nc1nccs1)c1cccc(-c2ccc3c(c2)C(Oc2ccc(Cl)cc2Cl)CC3)c1` (stereo not given) returned a melting point of 180 to 181 °C.

Compound `CC(C)n1nc(-c2sc(NC(=O)c3c(Cl)cccc3Cl)nc2-c2ccccc2)ccc1=O` had a melting point of 248 to 249 °C.

In the case of `Cc1c(N2C[C@@H](N)[C@@H](C(F)F)C2)c(F)cc2c(=O)c(C(=O)O)cn([C@@H]3C[C@@H]3F)c12`, the melting point was 214 to 216 °C.

Regarding `CC(C#CC1CC(Oc2ccc(F)cc2Cl)C1)N(O)C(N)=O` (single isomer, unassigned; (+)), the melting point was 160 °C.

In the case of `O=C(Nc1ccc(Cl)cc1)Oc1ccc2c(c1)N(Cc1ccccc1)CCC2`, the melting point stood at 120 °C.

In the case of `C#CCOc1c(OC)cc(/C=C/C(=O)/C=C/c2cc(OC)c(OCC#C)c(OC)c2)cc1OC`, the melting point is 162 to 164 °C.

Take `CCC(CS(=O)(=O)c1ccc(-c2ccc(OC)cc2)cc1)N(O)C=O` (stereo not given): the melting point lay in the range of 199 to 200 °C.

In the case of `CCOc1c(C)c(N2CCN(c3ccc(F)cc3)CC2)c(C)c2c1OC(C)C2` (stereo not given), the melting point was in the range of 136 to 138 °C.

`Nc1ccc(NNC(=O)c2ccccc2)cc1` showed a melting point of 134 to 136 °C.

Consider `NC(=S)c1ncn2c1[C@@H]1CCCN1C(=O)c1c(Cl)cccc1-2`, for which the melting point lay in the range of 247 to 248 °C.

`CCc1nccn1Cc1ccc2c(c1)Cc1c(-c3ccsc3)n[nH]c1-2` registered a melting point of 129 to 132 °C.

Compound `Cc1c(C)c(C(=O)CCl)c(C)c(C)c1Cl` yielded a melting point of 94 to 96 °C.

In turn, `O=C(O)Cc1ccc2c(c1)sc1c(Cl)cccc12` yielded a melting point of 226 to 228 °C.

`COc1cc2sc(C)nc2cc1C` had a melting point of 89 to 90 °C.

`N=C(N)c1ccc(-c2ccc(N3CCN(CCC(=O)O)S3(=O)=O)cc2)cc1` came in with a melting point of over 260 °C.

`CC(C)(C)OC(=O)NCCC(=O)NC(CC(=O)OCc1ccccc1)C(=O)NC(Cc1ccccc1)C(=O)OCc1ccccc1` (stereo not given) ({Boc-βAla}-Asp(OBn)-Phe-OBn; configuration not given here) came in with a melting point of 124 to 125 °C.

`CN(C)CCN(C)C(=O)Oc1ccc(Cl)cc1Cn1nc(-c2ccc(C(F)(F)F)cc2)oc1=O` came in with a melting point of 127 to 129 °C.

`CCCN(CCC12CC3CC(CC(C3)C1)C2)C(=O)NCCCc1ccncc1` returned a melting point of 99 to 103 °C.

In turn, `O=Cc1c(Cl)ccc(F)c1Cl` came in with a melting point of 63 to 65 °C.

Take `COC(=O)c1c(-c2ccccc2F)c2cc(OCc3ccccc3)ccc2c(=O)n1CC(C)C`: the melting point was in the range of 106 to 107 °C.

`CN1CCN(Cc2nnc(S)n2Cc2cccc(F)c2)CC1` had a melting point of 180 °C.

Compound `O=C(c1ccc(F)cc1)C1CCN(CCn2c(=O)c3ccccc3n(-c3ccccc3)c2=O)CC1` came in with a melting point of 166 °C.

In turn, `CC1CC(N)=NN1c1ccccn1` (stereo not given) gave a melting point of 154 to 157 °C.

The compound `OC(COc1ccc(Cl)cc1)(Cn1cncn1)c1ccc(Br)s1` (stereo not given) had a melting point of 108 to 112 °C.

For the compound `CC(C)(C)OC(=O)N1CCC(NC(=O)c2ccc(-n3cc4ccccc4n3)cc2)CC1`, the melting point lay in the range of 202 to 204 °C.

As to `OC(c1ccc2c(c1)CCN2Cc1ccccc1)(C(F)(F)F)C(F)(F)F`, the melting point lay in the range of 85 to 90 °C.

For `COC(=O)c1cc(CCCNCc2ccccc2)ccc1OCc1ccccc1`, the melting point was 75 to 77 °C.

`O=C(COc1ccc2c(c1)OCO2)c1ccccc1`: the melting point fell in the range of 123 to 126 °C.

On to `COc1cc2nc(N3CCN(C(=O)C4CCCCC4)CC3)nc(N)c2cc1OC`, for which the melting point is 223 to 225 °C.

For the compound `Cc1nc2n(c(=O)c1CCN1CCC(c3c[nH]c4ccccc34)CC1)CCCS2`, the melting point was found to be 227 °C.

In turn, `Cc1cc(C)c(Cc2cnc(NCCCCc3ncc(Br)cc3C)[nH]c2=O)cn1` showed a melting point of 110 to 112 °C.

The compound `c1ccc2c(c1)ccc1nn[nH]c12` displayed a melting point of 245 to 247 °C.

Turning to `CC1(C)OOC23CCCCC2CC(=O)OC3O1` (stereo not given), the melting point fell in the range of 106 to 107 °C.

For `Cc1cccc(C)c1N(CCCC(=O)O)C(=O)CN(C(=O)c1ccc(Cl)cc1)c1c(C)cccc1C`, the melting point lay within 214 to 216 °C.

As for `COc1ccc2c(O)n[nH]c2c1OC`, the melting point came out at 175 °C.

For the compound `CCOC(=O)c1cn(-c2ncns2)c2cc(F)c(F)cc2c1=O`, the melting point lay in the range of 149 to 152 °C.

`CCCc1c(OCCCSc2ccc(C(=O)CCCCC(=O)O)cc2)ccc(C(C)=O)c1O`: the melting point lay within 130 to 132 °C.

With `COc1cccc(/C=C/c2cccc(C(=O)O)c2)c1`, the melting point lay within 195 to 198 °C.

In turn, `COCCCN1CC(=O)c2cc(Cl)sc2S1(=O)=O` gave a melting point of 48 to 52 °C.

In turn, `CCCCCCCCCCCCCCOc1ccccc1C(=O)OC` gave a melting point of 39 to 40 °C.

`N#CCCCN1CCC(Nc2nc3ccccc3n2Cc2ccc(F)cc2)CC1`: the melting point was determined as 130 °C.

In the case of `COc1ccc(Cn2c(C)c(Br)c3cnnc(OCc4ccccc4)c32)cc1`, the melting point lay within 149 to 152 °C.

`C[C@@H]1CN(CCCn2c3ccc(O)cc3c3c4c(c(-c5c(Cl)cccc5Cl)cc32)C(=O)NC4=O)C[C@H](C)N1` registered a melting point of 160 to 165 °C.

`CS(=O)(=O)c1ccc(-c2cnn(C3C4CC5CC(C4)CC3C5)c(=O)c2-c2ccc(F)cc2)cc1` (stereo not given) came in with a melting point of 195 to 197 °C.

As for `COc1cc2c(c3oc(C(=O)O)cc(=O)c13)CCC(C)(C)O2`, the melting point was 225 to 226 °C.

`CC(C)(C)[Si](C)(C)Oc1ccc2c(c1)CCc1c-2c(=O)oc2cc(O[Si](C)(C)C(C)(C)C)ccc12` registered a melting point of 145 to 147 °C.

Compound `CCCCNC(=O)OC1c2nccnc2C(=O)N1c1ccc2ccc(Cl)nc2n1` (stereo not given) gave a melting point of 264 °C.

With `COC(=O)C(C(=O)OC)=C(/C=C/Cl)CCl`, the melting point stood at 56 °C.

`CC1(C)OCc2cc(Cl)cc(C(O)c3cn(C(c4ccccc4)(c4ccccc4)c4ccccc4)cn3)c2O1` (stereo not given) displayed a melting point of 120 °C.

As to `CC(C)(C)C(=O)OC1CCC2C3(O)C=CC4=CC(=O)CCC4(CO)C3CCC12C` (stereo not given), the melting point was 201 to 203 °C.

Compound `CCOC(=O)C(C)Cc1cccc(-c2nc(=O)c3ccccc3s2)n1` (stereo not given) gave a melting point of 120 to 121 °C.

For `COCOc1cc(OC)c(OC)cc1-c1c(C(=O)OC)nnc(C(=O)OC)c1-c1ccc(OC)c(OC)c1`, the melting point is 131 to 133 °C.

On to `Cc1noc(NS(=O)(=O)c2cccc(Cl)c2Cl)c1Br`, for which the melting point lay in the range of 166 to 169 °C.

Compound `COc1ccc(S(=O)(=O)Nc2ccccc2NC(=O)c2ccccc2)cc1` yielded a melting point of 167 to 168 °C.

Regarding `COc1ccc(C(=O)NNc2ccc(NC(=S)Nc3ccccc3)cc2)cc1`, the melting point came out at 178 °C.

Compound `CS(=O)(=O)c1ccc2nc(NC(=N)N)nc(-c3ccccc3)c2c1` showed a melting point of 180 to 185 °C.

Compound `Cn1c(C(F)(F)F)ccc(-c2c(Cl)cc(Cl)c3oc(C(Br)(Br)Br)cc23)c1=O` displayed a melting point of 225 to 227 °C.

In turn, `CCCNC(=O)c1nc(-c2ccccc2)c(-c2ccc(=O)n(C(C)C)n2)s1` had a melting point of 141 to 142 °C.

The compound `CN1C(=O)CC[C@]2(C)c3ccc(-c4c5ccccc5cc5ccccc45)cc3CC[C@@H]12` came in with a melting point of 95 to 110 °C.

Compound `N#CC(Cl)CS(=O)(=O)c1ccc(OC(F)(F)C(Cl)Cl)cc1` (stereo not given) yielded a melting point of 109 °C.

In turn, `C=C(C)C(=O)OCCOc1ccc(N=Nc2ccc(C#N)cc2)cc1C#N` registered a melting point of 110 °C.

In turn, `CCC1(O)CC(=O)OCc2c1cc1n(c2=O)Cc2cc3c4c(c(F)cc3nc2-1)OCN(Cc1ccccc1)C4` (stereo not given) showed a melting point of over 250 °C.

As for `O=C(O)c1cccc(N2CCC(N=Cc3ccccc3)=N2)c1`, the melting point was found to be 185 °C.

For the compound `O=c1cc2c3ccccc3sn2c2ccc(Cl)cc12`, the melting point was over 350 °C.

The compound `CCCC(C)(Oc1ccc(CC(=O)Nc2cc(C)cc(C)c2)cc1)C(=O)O` (stereo not given) returned a melting point of 145 to 147 °C.

Turning to `Clc1nc2c(c(N[C@@H]3CCC[C@H]3OCc3ccccc3)n1)SCC2`, the melting point is 157 to 158 °C.

On to `O=C(NC(CO)CO)c1cnccc1C(F)(F)F`, for which the melting point was 155 to 156 °C.

As to `Cc1c(C(O)C2CCc3c(c4ccccc4n3C)C2=O)ncn1C(c1ccccc1)(c1ccccc1)c1ccccc1` (stereo not given), the melting point is 141 to 147 °C.

In turn, `CN1CC=C(C2=Nc3cc(Cl)ccc3Oc3ccc(Cl)cc32)CC1` displayed a melting point of 166 to 167 °C.

`CCOC(=O)CC(O)CC(O)C=Cc1c(-c2ccccc2)ccnc1C` (stereo not given): the melting point was in the range of 85 to 86 °C.

As to `Cc1nc2n(c1C)N=C(c1ccc(N)cc1)c1cc3c(cc1C2)OCO3`, the melting point was 226 to 227 °C.

With `Oc1cccc([C@H]2CCCC[C@H]2NCCCCc2ccccc2)c1` (racemic), the melting point is 115 to 116 °C.

With `Cc1cc(CN2CCN(c3nc(C)c(C(=O)NCc4cccnc4)s3)C2=O)no1`, the melting point fell in the range of 185 to 188 °C.

Turning to `O=C(CP(=O)(O)O)NC1CCCCC1`, the melting point was in the range of 180 to 183 °C.

The compound `CCCCC(Cc1ccc(OCCNC(=O)c2ccc(-c3cccc(O)c3)cc2)cc1)C(=O)O` (stereo not given) had a melting point of 98 to 100 °C.

(Values after a melting point compilation (Tetko et al.; mined from patent text by program, amines drawn as free bases though some values may be those of a salt).)
